Measured values as given in ChEMBL document CHEMBL5291721, “A preclinical secondary pharmacology resource illuminates target-adverse drug reaction associations of marketed drugs” (Nat Commun, 2023).

Key:
[1] = target: T1, Alpha-2A adrenergic receptor (Homo sapiens, UniProt P08913); type: functional, cell-based
T1 sequence (P08913 whole entry): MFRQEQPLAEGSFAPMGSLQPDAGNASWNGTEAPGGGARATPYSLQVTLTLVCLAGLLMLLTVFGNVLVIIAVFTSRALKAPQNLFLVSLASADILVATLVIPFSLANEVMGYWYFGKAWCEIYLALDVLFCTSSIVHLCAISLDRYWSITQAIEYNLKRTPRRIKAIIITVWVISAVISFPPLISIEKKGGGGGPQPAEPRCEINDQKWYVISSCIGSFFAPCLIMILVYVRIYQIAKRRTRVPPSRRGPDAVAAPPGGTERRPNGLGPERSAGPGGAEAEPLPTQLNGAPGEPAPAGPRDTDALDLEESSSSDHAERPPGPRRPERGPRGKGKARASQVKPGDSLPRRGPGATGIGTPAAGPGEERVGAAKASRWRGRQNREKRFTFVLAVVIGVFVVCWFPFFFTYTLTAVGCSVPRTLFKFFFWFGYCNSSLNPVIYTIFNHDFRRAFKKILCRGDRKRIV

[2] = target: T2, Equilibrative nucleoside transporter 1 (Homo sapiens, UniProt Q99808)
T2 sequence (Q99808 whole entry): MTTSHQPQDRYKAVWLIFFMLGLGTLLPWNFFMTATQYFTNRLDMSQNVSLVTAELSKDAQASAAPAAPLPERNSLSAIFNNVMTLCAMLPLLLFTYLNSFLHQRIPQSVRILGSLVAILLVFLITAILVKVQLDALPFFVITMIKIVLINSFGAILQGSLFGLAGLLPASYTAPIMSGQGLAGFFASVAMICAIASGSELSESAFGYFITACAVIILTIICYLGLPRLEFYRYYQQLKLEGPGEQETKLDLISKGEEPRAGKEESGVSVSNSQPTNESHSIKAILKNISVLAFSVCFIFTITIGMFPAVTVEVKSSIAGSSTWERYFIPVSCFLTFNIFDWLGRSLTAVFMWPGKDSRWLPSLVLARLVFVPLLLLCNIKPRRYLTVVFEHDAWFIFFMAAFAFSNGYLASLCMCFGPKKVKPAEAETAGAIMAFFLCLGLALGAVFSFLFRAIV

[3] = target: T3, Alpha-1A adrenergic receptor (Homo sapiens, UniProt P35348); type: functional, cell-based
T3 sequence (P35348 whole entry): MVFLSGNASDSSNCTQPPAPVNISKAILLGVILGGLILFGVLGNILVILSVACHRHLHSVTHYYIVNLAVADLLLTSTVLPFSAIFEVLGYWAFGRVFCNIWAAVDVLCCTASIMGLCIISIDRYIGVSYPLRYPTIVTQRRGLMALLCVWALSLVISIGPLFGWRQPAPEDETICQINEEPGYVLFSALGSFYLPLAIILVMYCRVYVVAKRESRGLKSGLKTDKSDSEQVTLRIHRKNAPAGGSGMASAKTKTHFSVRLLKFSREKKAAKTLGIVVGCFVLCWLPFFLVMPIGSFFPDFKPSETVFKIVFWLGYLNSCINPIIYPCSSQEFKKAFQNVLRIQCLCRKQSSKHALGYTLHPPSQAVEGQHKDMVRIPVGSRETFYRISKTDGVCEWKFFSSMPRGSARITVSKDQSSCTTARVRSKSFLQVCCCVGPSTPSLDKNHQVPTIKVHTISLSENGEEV

Vasopressin V2 receptor = Vasopressin V2 receptor (Homo sapiens, UniProt P30518)
D(1A) dopamine receptor = D(1A) dopamine receptor (Homo sapiens, UniProt P21728); type: functional, cell-based
[4] = target: T4, Muscarinic acetylcholine receptor M1 (Homo sapiens, UniProt P11229); type: functional, cell-based
T4 sequence (P11229 whole entry): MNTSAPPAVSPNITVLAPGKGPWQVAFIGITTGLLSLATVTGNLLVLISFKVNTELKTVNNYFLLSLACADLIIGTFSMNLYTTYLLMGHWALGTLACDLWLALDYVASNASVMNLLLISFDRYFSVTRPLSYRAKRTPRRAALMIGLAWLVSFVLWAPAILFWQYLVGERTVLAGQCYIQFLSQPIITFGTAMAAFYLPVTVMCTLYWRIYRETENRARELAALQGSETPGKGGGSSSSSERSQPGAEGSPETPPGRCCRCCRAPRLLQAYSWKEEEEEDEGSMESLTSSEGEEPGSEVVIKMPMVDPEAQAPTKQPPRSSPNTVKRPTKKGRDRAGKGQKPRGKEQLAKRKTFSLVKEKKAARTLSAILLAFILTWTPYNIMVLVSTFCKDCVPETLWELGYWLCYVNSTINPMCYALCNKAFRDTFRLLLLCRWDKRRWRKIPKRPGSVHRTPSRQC

[5] = target: Prostaglandin G/H synthase 1 (Homo sapiens, UniProt P23219); type: functional
Also: assay procedure not described here.

Chain of Prostaglandin G/H synthase 1 (P23219 whole entry): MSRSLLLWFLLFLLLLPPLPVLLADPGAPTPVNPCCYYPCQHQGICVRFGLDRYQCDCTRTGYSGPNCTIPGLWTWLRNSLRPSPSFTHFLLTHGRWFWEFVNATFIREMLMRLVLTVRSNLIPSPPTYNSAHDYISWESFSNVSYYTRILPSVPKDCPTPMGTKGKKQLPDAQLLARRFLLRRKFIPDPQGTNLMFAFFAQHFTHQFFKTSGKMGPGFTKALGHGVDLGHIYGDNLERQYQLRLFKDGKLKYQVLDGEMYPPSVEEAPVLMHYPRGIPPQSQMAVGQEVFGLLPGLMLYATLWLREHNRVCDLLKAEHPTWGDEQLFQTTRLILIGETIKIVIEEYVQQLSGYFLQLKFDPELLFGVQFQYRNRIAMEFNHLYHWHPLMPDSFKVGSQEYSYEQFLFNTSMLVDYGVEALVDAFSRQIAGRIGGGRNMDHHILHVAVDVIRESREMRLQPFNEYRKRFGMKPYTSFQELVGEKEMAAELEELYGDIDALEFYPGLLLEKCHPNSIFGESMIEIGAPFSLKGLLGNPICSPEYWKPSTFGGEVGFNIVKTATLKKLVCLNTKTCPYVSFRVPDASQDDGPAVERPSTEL
Chain of D(1A) dopamine receptor (P21728 whole entry): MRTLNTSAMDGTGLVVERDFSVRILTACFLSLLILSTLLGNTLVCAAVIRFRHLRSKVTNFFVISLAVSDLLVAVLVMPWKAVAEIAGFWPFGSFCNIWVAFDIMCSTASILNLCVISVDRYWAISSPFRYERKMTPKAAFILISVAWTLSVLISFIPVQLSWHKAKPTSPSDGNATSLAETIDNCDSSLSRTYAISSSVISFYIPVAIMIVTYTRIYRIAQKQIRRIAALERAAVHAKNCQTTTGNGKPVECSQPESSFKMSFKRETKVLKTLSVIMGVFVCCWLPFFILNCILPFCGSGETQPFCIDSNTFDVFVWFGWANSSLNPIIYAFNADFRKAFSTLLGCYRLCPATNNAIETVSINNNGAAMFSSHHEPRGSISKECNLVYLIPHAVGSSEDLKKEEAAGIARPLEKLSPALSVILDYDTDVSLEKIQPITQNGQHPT
Chain of Vasopressin V2 receptor (P30518 whole entry): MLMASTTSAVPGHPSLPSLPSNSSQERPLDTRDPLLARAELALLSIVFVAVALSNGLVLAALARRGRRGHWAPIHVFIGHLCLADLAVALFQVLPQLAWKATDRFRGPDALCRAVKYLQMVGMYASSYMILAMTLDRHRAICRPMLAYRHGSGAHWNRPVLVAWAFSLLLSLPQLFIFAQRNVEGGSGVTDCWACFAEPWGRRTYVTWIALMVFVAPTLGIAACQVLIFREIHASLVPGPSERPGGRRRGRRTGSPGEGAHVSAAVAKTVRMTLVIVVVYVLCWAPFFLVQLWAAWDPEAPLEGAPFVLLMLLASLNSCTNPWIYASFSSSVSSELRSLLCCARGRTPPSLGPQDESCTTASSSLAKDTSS

`C[C@@H]1C[C@H]2[C@@H]3C[C@H](F)C4=CC(=O)C=C[C@]4(C)[C@@]3(F)[C@@H](O)C[C@]2(C)[C@@]1(OC(=O)c1ccco1)C(=O)SCF` [FLUTICASONE FUROATE] was tested, and the AC50 [1] was > 10 µM, the AC50 [2] was > 10000 nM and the AC50 [3] was > 30 µM. For the same compound, the AC50 (Vasopressin V2 receptor) was > 10 µM, the AC50 (D(1A) dopamine receptor) was > 10 µM and the AC50 [4] was > 30 µM. For the same compound, the AC50 [5] was 27.7 µM.
`CCCSc1nc(N[C@@H]2C[C@H]2c2ccc(F)c(F)c2)c2nnn([C@@H]3C[C@H](OCCO)[C@@H](O)[C@H]3O)c2n1` [TICAGRELOR] was tested, and the AC50 [2] was 365 nM, the AC50 [4] was > 30 µM and the AC50 [5] was > 30 µM.
`CC1(CCN2CCCCC2)C(=O)CCc2ccccc21` (stereo unspecified) [NEPINALONE] was tested, and the AC50 [4] was > 30 µM and the AC50 [5] was > 30 µM.
`CC(C)(C)NC(=O)N[C@H](C(=O)N1C[C@H]2[C@@H]([C@H]1C(=O)NC(CC1CCC1)C(=O)C(N)=O)C2(C)C)C(C)(C)C` (stereo partly specified) [BOCEPREVIR] was tested, and the AC50 [4] was > 30 µM and the AC50 [5] was > 30 µM.
With `Cc1ncc2c(c1O)COC2c1ccc(Cl)cc1` (stereo unspecified) [CICLETANINE] the AC50 [4] was > 30 µM and the AC50 [5] was > 30 µM.
In the case of `Cc1ccc(S(=O)(=O)NC(=O)NC2CCCCC2)cc1` [GLYCYCLAMIDE], the AC50 [4] is reported as > 30 µM and the AC50 [5] is reported as > 30 µM.
`CC(=O)O[C@H]1Cc2ccccc2N(C(N)=O)c2ccccc21` [ESLICARBAZEPINE ACETATE] was tested, and the AC50 [4] was > 30 µM and the AC50 [5] was > 30 µM.
With `COC(=O)C[C@](O)(CCCC(C)(C)O)C(=O)O[C@@H]1C(OC)=C[C@]23CCCN2CCc2cc4c(cc2[C@H]13)OCO4` [OMACETAXINE MEPESUCCINATE] the AC50 [4] was > 30 µM and the AC50 [5] was > 10 µM.
With `CCCn1cnc2c1c(=O)n(CCCCC(C)=O)c(=O)n2C` [PROPENTOFYLLINE] the AC50 [4] was > 30 µM and the AC50 [5] was > 30 µM.
With `CC(=O)OCC(=O)[C@@]1(O)CC[C@H]2[C@@H]3CCC4=CC(=O)CC[C@]4(C)[C@H]3[C@@H](O)C[C@@]21C` [HYDROCORTISONE ACETATE] the AC50 [4] was > 30 µM and the AC50 [5] was > 30 µM.
In the case of `O=C(O)[C@@H]1C[C@@H](O)CN1`, the AC50 [4] is reported as > 30 µM and the AC50 [5] is reported as > 30 µM.
With `N[C@@H](Cc1ccccc1)C(=O)O` [PHENYLALANINE] the AC50 [4] was > 30 µM and the AC50 [5] was 28 µM.
For `CC(=O)[C@]1(N)Cc2c(O)c3c(c(O)c2[C@@H](O[C@H]2C[C@H](O)[C@H](O)CO2)C1)C(=O)c1ccccc1C3=O` [AMRUBICIN], the AC50 [4] was 18.4 µM and the AC50 [5] was 3.62 µM.
For `CN1CCCN(C(c2ccccc2)c2ccc(Cl)cc2)CC1` (stereo unspecified) [HOMOCHLORCYCLIZINE], the AC50 [4] was > 30 µM and the AC50 [5] was > 30 µM.
In the case of `Cc1cc2c(cc1S(N)(=O)=O)S(=O)(=O)CCC2`, the AC50 [4] is reported as > 30 µM and the AC50 [5] is reported as > 30 µM.
